Source: patent US20260224533A1, “CRYSTALLINE NANOPARTICLES COMPRISING ENZALUTAMIDE” (HELM PHARMACEUTICALS GMBH, priority 2023, published 2026)
Converted amounts (≈) assume the structure as drawn.

Key:
[1] = Kinetic solubility of Enzalutamide in simulated fluids; assay type: physicochemical; details: kinetic from dmso stock, 37° C.
Description: Preferably, the content of the amorphous nanosized Enzalutamide in the slurry or suspension is at least 10 times higher, more preferably at least 50 times, still more preferably at least 100 times higher, even more preferably at least 500 times higher than its solubility in the liquid, preferably aqueous solution, comprising the one or more polymers and/or copolymers to form the suspension or the slurry. Accordingly, the amount of Enzalutamide amorphous nanoparticles provided in step (a) that is needed depends on its solubility. The solubility can be measured by any method known in the art. […] A decent slurry can thus be produced when the slurry or suspension comprises e.g. 5 mg of the amorphous nanoparticles provided in step (a) in 1 mL of the slurry or suspension.

[2] = cited from earlier work

- solubility kinetic ([1]; Fasted State Simulated Intestinal Fluid (FaSSIF)): ~74 µg/mL (≈ 159 µM)
- solubility kinetic ([1]; Simulated Gastric Fluid (SGF)): ~50 µg/mL (≈ 108 µM)
Structure (SMILES): CNC(=O)c1ccc(N2C(=S)N(c3ccc(C#N)c(C(F)(F)F)c3)C(=O)C2(C)C)cc1F [Enzalutamide]
- solubility in water [2]: insoluble
